In PubChem BioAssay (NCI):
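Briefly, cells in 96-well plates were exposed to five compound concentrations for 48 h, and endpoints were estimated by linear interpolation. Here, GI50 denotes the concentration required for 50% inhibition of growth. At the TGI there is no net growth.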

Tests used:
Assay in all cases: NCI anticancer screen, dose series, 48 h
786-0 renal = system: 786-0 renal
A498 renal = system: A498 renal
A549 NSCLC = system: A549 NSCLC
ACHN renal = system: ACHN renal
CAKI-1 renal = system: CAKI-1 renal
CCRF-CEM leukemia = system: CCRF-CEM leukemia
COLO 205 colon = system: COLO 205 colon
DU-145 prostate = system: DU-145 prostate
EKVX NSCLC = system: EKVX NSCLC
HCC-2998 colon = system: HCC-2998 colon
HCT-116 colon = system: HCT-116 colon
HCT-15 colon = system: HCT-15 colon
HOP-62 NSCLC = system: HOP-62 NSCLC
HOP-92 NSCLC = system: HOP-92 NSCLC
HS 578T breast = system: HS 578T breast
HT29 colon = system: HT29 colon
IGROV1 ovarian = system: IGROV1 ovarian
K-562 leukemia = system: K-562 leukemia
KM12 colon = system: KM12 colon
LOX IMVI melanoma = system: LOX IMVI melanoma
M14 melanoma = system: M14 melanoma
MALME-3M melanoma = system: MALME-3M melanoma
MCF7 breast = system: MCF7 breast
MDA-MB-231 breast = system: MDA-MB-231 breast
MDA-MB-435 = system: MDA-MB-435
MOLT-4 leukemia = system: MOLT-4 leukemia
NCI-H226 lung = system: NCI-H226 lung
NCI-H23 lung = system: NCI-H23 lung
NCI-H460 lung = system: NCI-H460 lung
NCI-H522 lung = system: NCI-H522 lung
NCI/ADR-RES ovarian = system: NCI/ADR-RES ovarian
OVCAR-3 ovarian = system: OVCAR-3 ovarian
OVCAR-4 ovarian = system: OVCAR-4 ovarian
OVCAR-5 ovarian = system: OVCAR-5 ovarian
OVCAR-8 ovarian = system: OVCAR-8 ovarian
PC-3 prostate = system: PC-3 prostate
RXF 393 renal = system: RXF 393 renal
SF-268 CNS = system: SF-268 CNS
SF-295 CNS = system: SF-295 CNS
SF-539 CNS = system: SF-539 CNS
SK-MEL-2 melanoma = system: SK-MEL-2 melanoma
SK-MEL-28 melanoma = system: SK-MEL-28 melanoma
SK-MEL-5 melanoma = system: SK-MEL-5 melanoma
SK-OV-3 ovarian = system: SK-OV-3 ovarian
SN12C renal = system: SN12C renal
SNB-19 CNS = system: SNB-19 CNS
SNB-75 CNS = system: SNB-75 CNS
SR leukemia = system: SR leukemia
SW-620 colon = system: SW-620 colon
T-47D breast = system: T-47D breast
TK-10 renal = system: TK-10 renal
U251 CNS = system: U251 CNS
UACC-257 melanoma = system: UACC-257 melanoma
UACC-62 melanoma = system: UACC-62 melanoma
UO-31 renal = system: UO-31 renal

## CCCCC(CC)COC(=O)C[N+](C)(C)CCOC(c1ccccc1)c1ccccc1 (stereo not given)
786-0 renal
  GI50: 2.3 µM
  TGI: 5.69 µM
A498 renal
  GI50: 3.12 µM
  TGI: 15.2 µM
A549 NSCLC
  GI50: 17.8 µM
  TGI: 38.9 µM
ACHN renal
  GI50: 15 µM
  TGI: 30.5 µM
CAKI-1 renal
  GI50: 16.8 µM
  TGI: 31.9 µM
CCRF-CEM leukemia
  GI50: 3.17 µM
  TGI: 11.7 µM
COLO 205 colon
  GI50: 1.93 µM
  TGI: 4.12 µM
DU-145 prostate
  GI50: 5.53 µM
  TGI: 18 µM
EKVX NSCLC
  GI50: 3.76 µM
  TGI: 15.9 µM
HCC-2998 colon
  GI50: 1.75 µM
  TGI: 3.29 µM
HCT-116 colon
  GI50: 1.8 µM
  TGI: 3.32 µM
HCT-15 colon
  GI50: 13.8 µM
  TGI: 31.2 µM
HOP-62 NSCLC
  GI50: 9.89 µM
  TGI: 28.6 µM
HOP-92 NSCLC
  GI50: 1.86 µM
  TGI: 4.9 µM
HS 578T breast
  GI50: 2.08 µM
  TGI: 6.68 µM
HT29 colon
  GI50: 3.55 µM
  TGI: 13.1 µM
IGROV1 ovarian
  GI50: 1.82 µM
  TGI: 3.58 µM
K-562 leukemia
  GI50: 3.23 µM
  TGI: 11.6 µM
KM12 colon
  GI50: 1.78 µM
  TGI: 3.44 µM
LOX IMVI melanoma
  GI50: 1.66 µM
  TGI: 3.02 µM
M14 melanoma
  GI50: 1.63 µM
  TGI: 3.23 µM
MALME-3M melanoma
  GI50: 1.49 µM
  TGI: 3.09 µM
MCF7 breast
  GI50: 1.99 µM
  TGI: 4.34 µM
MDA-MB-231 breast
  GI50: 1.83 µM
  TGI: 3.88 µM
MDA-MB-435
  GI50: 1.71 µM
  TGI: 3.09 µM
MOLT-4 leukemia
  GI50: 2.5 µM
  TGI: 6.66 µM
NCI-H226 lung
  GI50: 6.83 µM
  TGI: 27.4 µM
NCI-H23 lung
  GI50: 3.77 µM
  TGI: 15.9 µM
NCI-H460 lung
  GI50: 4.77 µM
  TGI: 18.8 µM
NCI-H522 lung
  GI50: 1.75 µM
  TGI: 3.67 µM
NCI/ADR-RES ovarian
  GI50: 23.5 µM
  TGI: 70.3 µM
OVCAR-3 ovarian
  GI50: 1.79 µM
  TGI: 3.64 µM
OVCAR-4 ovarian
  GI50: 2.4 µM
  TGI: 6.99 µM
OVCAR-5 ovarian
  GI50: 4.11 µM
  TGI: 15.8 µM
OVCAR-8 ovarian
  GI50: 4.02 µM
  TGI: 17.5 µM
PC-3 prostate
  GI50: 3.21 µM
  TGI: 11.7 µM
RXF 393 renal
  GI50: 1.48 µM
  TGI: 3.34 µM
SF-268 CNS
  GI50: 2.01 µM
  TGI: 4.77 µM
SF-295 CNS
  GI50: 9.63 µM
  TGI: 26.3 µM
SF-539 CNS
  GI50: 2.32 µM
  TGI: 5.27 µM
SK-MEL-2 melanoma
  GI50: 1.95 µM
  TGI: 4.13 µM
SK-MEL-28 melanoma
  GI50: 1.8 µM
  TGI: 3.31 µM
SK-MEL-5 melanoma
  GI50: 1.73 µM
  TGI: 3.1 µM
SK-OV-3 ovarian
  GI50: 6.38 µM
  TGI: 21.8 µM
SN12C renal
  GI50: 2.43 µM
  TGI: 6 µM
SNB-19 CNS
  GI50: 1.85 µM
  TGI: 3.76 µM
SNB-75 CNS
  GI50: 2.13 µM
  TGI: 5.27 µM
SR leukemia
  GI50: 2.18 µM
  TGI: 5.16 µM
SW-620 colon
  GI50: 1.97 µM
  TGI: 4.3 µM
T-47D breast
  GI50: 1.91 µM
  TGI: 4.44 µM
TK-10 renal
  GI50: 4.26 µM
  TGI: 17.6 µM
U251 CNS
  GI50: 1.87 µM
  TGI: 3.81 µM
UACC-257 melanoma
  GI50: 2.56 µM
  TGI: 7.6 µM
UACC-62 melanoma
  GI50: 1.67 µM
  TGI: 3.16 µM
UO-31 renal
  GI50: 12.4 µM
  TGI: 27.3 µM
